# According to patent US20110045520A1, “FATTY ACID MARKERS FOR THE DIAGNOSIS, PROGNOSIS AND MANAGEMENT OF CARDIOVASCULAR DISEASE” (priority 2007, published 2011):
# Molecular target: T1, human serum albumin (HSA) in pooled normal serum (Homo sapiens, UniProt P02768)
# T1 construct: from tissue; host or cells: pooled normal human serum
# Test: Cobalt binding assay, HSA in pooled normal serum incubated with individual unesterified fatty acids
# Settings: fatty acid:HSA molar ratios of about 8; most apparent with HSA in pooled normal serum
# Description: The concentrations of twelve unesterified fatty acids were measured in vitro to determine if differences in individual fatty acid levels affect Co(II)—albumin interactions in the cobalt binding assay. The effect of individual fatty acid concentrations on HSA was evaluated in the presence of HSA from two different sources: (1) purified commercial HSA with defined buffer conditions, and (2) USA in pooled normal serum. The cobalt binding assays were performed after incubation of HSA with each unesterified fatty acid for 12 hours at room temperature. The concentrations of the individual FFAs were determined by measuring total FFAs levels before and after the addition of the specific FFAs to pooled normal serum. HSA concentrations were measured by standard colorimetric protein assays. Molar ratios were calculated from the concentration values determined for the individual specific FFAs with respect to the concentrations of HSA measured in each sample.
# T1 sequence (P02768 25-609): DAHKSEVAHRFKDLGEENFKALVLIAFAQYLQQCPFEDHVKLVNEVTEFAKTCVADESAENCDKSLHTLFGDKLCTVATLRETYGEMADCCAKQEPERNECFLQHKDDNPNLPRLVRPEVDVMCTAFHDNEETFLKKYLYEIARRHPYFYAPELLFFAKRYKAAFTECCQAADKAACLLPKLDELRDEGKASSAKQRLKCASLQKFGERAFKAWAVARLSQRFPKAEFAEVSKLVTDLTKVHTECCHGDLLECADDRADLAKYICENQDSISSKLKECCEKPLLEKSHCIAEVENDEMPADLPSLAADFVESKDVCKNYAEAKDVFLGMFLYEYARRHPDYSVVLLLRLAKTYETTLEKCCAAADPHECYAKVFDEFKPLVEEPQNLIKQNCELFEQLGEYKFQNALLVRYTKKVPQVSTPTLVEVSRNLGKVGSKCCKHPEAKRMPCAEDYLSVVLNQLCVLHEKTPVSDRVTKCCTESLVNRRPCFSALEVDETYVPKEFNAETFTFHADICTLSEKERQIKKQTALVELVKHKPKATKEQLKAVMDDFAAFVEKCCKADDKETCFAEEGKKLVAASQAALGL
row,Structure (SMILES),effect on the percent reduction of the Co[II]-HSA binding assay
1,CCCCC/C=C\C/C=C\C/C=C\C/C=C\CCCC(=O)O [Arachidonic acid],significant effect
2,CCCCCCCC/C=C\CCCCCCCC(=O)O [Oleic acid],significant effect
